Data: patent US20180263996A1, “ARYL SULTAM DERIVATIVES AS RORc MODULATORS” (Genentech, Inc., priority 2015, published 2018)

Molecular target: T1, RORc (Homo sapiens, UniProt P51449)
T1 construct: host or cells: E. coli
T1 sequence (P51449 269-508 limits assumed): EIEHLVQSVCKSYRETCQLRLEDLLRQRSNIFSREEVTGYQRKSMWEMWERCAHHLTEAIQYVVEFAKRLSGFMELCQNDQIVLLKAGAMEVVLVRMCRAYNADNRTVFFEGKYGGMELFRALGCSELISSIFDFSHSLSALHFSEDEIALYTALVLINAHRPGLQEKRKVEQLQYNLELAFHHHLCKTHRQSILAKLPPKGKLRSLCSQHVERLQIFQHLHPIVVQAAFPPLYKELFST
Experiment: In Vitro RORc Ligand Binding Assay
Details: IC50 values for RORc
Protocol: This assay was used to determine a compound's potency in inhibiting activity of RORc by determining, Kiapp, IC50, or percent inhibition values.
On day of the assay, 100 uL of 0.05% CHAPS (in deionized H2O) was added to all wells of the GFB Unifilter plate and allowed soak for 1 h. A wash buffer of 50 mM HEPES (pH 7.4), 150 mM NaCl, and 5 mM MgCl2 was prepared to wash the filter plate. To prepare an assay buffer, BSA was added to the wash buffer to reach 0.01% and DTT was added to reach 1 mM.
The 20× compound stocks were diluted in DMSO with Assay Buffer 4-fold to reach 5× the final test concentration in 25% DMSO (10 uL compound+30 uL Assay Buffer). Solutions were mixed by aspiration several times with a pipette set on 50 uL volume.
For two point screening, 10 mM stock compound solutions were diluted in DMSO to obtain 200 uM (20× the high test concentration) and then diluted 10-fold further to reach 20 uM (20× the low test concentration). The 20× stocks were diluted 4-fold with Assay Buffer (10 uL compound+30 uL Assay Buffer) to reach 5× the test concentrations (50 uM and 5 uM) and 10 uL were added to two assay plates for the duplicate wells. With each concentration tested on 2 plates, each set of 80 compounds used 4 assay plates (1 uM and 10 uM, with n=2).
For 25-hydroxycholesterol in 25% DMSO/75% Assay Buffer; 10 uL per well was used for NSB samples. Wells for Total Binding and No Receptor sample determination contained 10 uL of 25% DMSO/75% Assay Buffer per well.
Add 20 uL to all wells to reach 6 nM final concentration in the assay.
Stock receptor solution was diluted in assay buffer to obtain 1.5 ug/mL in Assay Buffer. 20 uL was added to all wells. For No Receptor samples, 20 uL Assay Buffer was substituted for receptor solution.
Assay plates were 96-well polypropylene V-bottom plates. […] 10 uL of 25% DMSO/75% Assay Buffer was added to Total Binding or No Receptor wells. 10 uL of 5 uM 25-hydroxycholesterol in 25% DMSO/75% Assay Buffer was added to NSB wells. […] 20 uL of 1.5 ug/mL RORc receptor was added to wells (or 40 uL Assay Buffer to No R wells). Following addition to the wells, the plates were incubated 3 h at 25° C.
Using a Packard Filtermate Harvester, the filter plate were washed 4 times following transfer of the incubated samples. Plates were dry-filtered completely (2 h at 50° C. or overnight at room temperature). 50 uL Microscint 0 was added to all wells and read on Topcount protocol Inverted.
Final concentrations were as follows: 50 mM HEPES buffer (pH 7.4); 150 mM NaCl; 1 mM DTT; 5 mM MgCl2; 0.01% BSA; 5% DMSO; 0.6 ug/mL RORc receptor; 6 nM 25-[^3H]hydroxycholesterol. For NSB wells, 1 uM 25-hydroxycholesterol was also present.

Row | SMILES | IC50
1 | CC(NC(=O)c1c[nH]cn1)c1cc(F)c(CN2[C@@H](C)CC[C@H](c3ccccc3)S2(=O)=O)cc1F (stereo in doubt) [Compound 59, N-[1-[2,5-difluoro-4-[[(3S,6R)-3-methyl-1,1-dioxo-6-phenyl-thiazinan-2-yl]methyl]phenyl]ethyl]-1H-imidazole-4-carboxamide] | 93 nM
2 | C[C@H]1CC[C@H](c2ccccc2)S(=O)(=O)N1Cc1cc(F)c([C@@H](CCC#N)C(N)=O)cc1F [Compound 17, (2R)-4-cyano-2-[2,5-difluoro-4-[[(3S,6R)-3-methyl-1,1-dioxo-6-phenyl-thiazinan-2-yl]methyl]phenyl]butanamide] | 82.7 nM
3 | Cc1nnc(C(=O)NC(C)c2cc(F)c(CN3[C@@H](C)CC[C@H](c4ccccc4)S3(=O)=O)cc2F)o1 (stereo in doubt) [Compound 73, N-[1-[2,5-difluoro-4-[[(3S,6R)-3-methyl-1,1-dioxo-6-phenyl-thiazinan-2-yl]methyl]phenyl]ethyl]-5-methyl-1,3,4-oxadiazole-2-carboxamide] | 9.3 nM
4 | CC(NC(=O)Cc1cnoc1)c1cc(F)c(CN2[C@@H](C)CC[C@H](c3ccccc3)S2(=O)=O)cc1F (stereo partly drawn) [Compound 52, N-[1-[2,5-difluoro-4-[[(3S,6R)-3-methyl-1,1-dioxo-6-phenyl-thiazinan-2-yl]methyl]phenyl]ethyl]-2-isoxazol-4-yl-acetamide] | 101 nM
5 | C[C@@H](NC1=CC(=O)CCC1)c1cc(F)c(CN2[C@@H](C)CC[C@H](c3ccccc3)S2(=O)=O)cc1F [Compound 22, 3-[[(1R)-1-[2,5-difluoro-4-[[(3S,6R)-3-methyl-1,1-dioxo-6-phenyl-thiazinan-2-yl]methyl]phenyl]ethyl]amino] cylohex-2-en-1-one] | 265 nM
6 | C[C@H]1CC[C@H](c2ccccc2)S(=O)(=O)N1Cc1cc(F)c([C@H](OC2COC2)C(N)=O)cc1F [Compound 9, (2S)-2-[2,5-difluoro-4-[[(3S,6R)-3-methyl-1,1-dioxo-6-phenyl-thiazinan-2-yl]methyl]phenyl]-2-(oxetan-3-yloxy)acetamide] | 34.8 nM
7 | CC(NC(=O)c1cncnc1)c1cc(F)c(CN2[C@@H](C)CC[C@H](c3ccccc3)S2(=O)=O)cc1F (stereo in doubt) [Compound 63, N-[1-[2,5-difluoro-4-[[(3S,6R)-3-methyl-1,1-dioxo-6-phenyl-thiazinan-2-yl]methyl]phenyl]ethyl]pyrimidine-5-carboxamide] | 8.3 nM
8 | CC(NC(=O)c1cncs1)c1cc(F)c(CN2[C@@H](C)CC[C@H](c3ccccc3)S2(=O)=O)cc1F (stereo in doubt) [Compound 72, N-[1-[2,5-difluoro-4-[[(3S,6R)-3-methyl-1,1-dioxo-6-phenyl-thiazinan-2-yl]methyl]phenyl]ethyl]thiazole-5-carboxamide] | 6.3 nM
9 | CC(NCC(N)=O)c1cc(F)c(CN2[C@@H](C)CC[C@H](c3ccccc3)S2(=O)=O)cc1F (stereo partly drawn) [Compound 29, 2-[1-[2,5-difluoro-4-[[(3S,6R)-3-methyl-1,1-dioxo-6-phenyl-thiazinan-2-yl]methyl]phenyl]ethylamino] acetamide] | 56.4 nM
10 | Cc1ncoc1C(=O)NC(C)c1cc(F)c(CN2[C@@H](C)CC[C@H](c3ccccc3)S2(=O)=O)cc1F (stereo in doubt) [Compound 64, N-[1-[2,5-difluoro-4-[[(3S,6R)-3-methyl-1,1-dioxo-6-phenyl-thiazinan-2-yl]methyl]phenyl]ethyl]-4-methyl-oxazole-5-carboxamide] | 231 nM
11 | C[C@H]1CC[C@H](c2ccccc2)S(=O)(=O)N1Cc1cc(F)c([C@H](OCC2CC2)C(N)=O)cc1F [Compound 19, (2S)-2-(cyclopropylmethoxy)-2-[2,5-difluoro-4-[[(3S,6R)-3-methyl-1,1-dioxo-6-phenyl-thiazinan-2-yl]methyl]phenyl]acetamide] | 50.7 nM
12 | C[C@H]1CC[C@H](c2ccccc2)S(=O)(=O)N1Cc1cc(F)c(C2=CC(=O)C2)cc1F [Compound 15, 3-[2,5-difluoro-4-[[(3S,6R)-3-methyl-1,1-dioxo-6-phenyl-thiazinan-2-yl]methyl]phenyl]cyclobut-2-en-1-one] | 6.5 nM
13 | CC(NC(=O)c1nc(N)n[nH]1)c1cc(F)c(CN2[C@@H](C)CC[C@H](c3ccccc3)S2(=O)=O)cc1F (stereo in doubt) [Compound 71, 3-amino-N-[1-[2,5-difluoro-4-[[(3S,6R)-3-methyl-1,1-dioxo-6-phenyl-thiazinan-2-yl]methyl]phenyl]ethyl]-1H-1,2,4-triazole-5-carboxamide] | 47.9 nM
14 | C[C@H]1CC[C@H](c2ccccc2)S(=O)(=O)N1Cc1cc(F)c([C@@H](OC2COC2)C(N)=O)cc1F [Compound 8, (2R)-2-[2,5-difluoro-4-[[(3S,6R)-3-methyl-1,1-dioxo-6-phenyl-thiazinan-2-yl]methyl]phenyl]-2-(oxetan-3-yloxy)acetamide] | 31 nM
15 | Cc1cc(C(=O)NC(C)c2cc(F)c(CN3[C@@H](C)CC[C@H](c4ccccc4)S3(=O)=O)cc2F)[nH]n1 (stereo in doubt) [Compound 56, N-[1-[2,5-difluoro-4-[[(3S,6R)-3-methyl-1,1-dioxo-6-phenyl-thiazinan-2-yl]methyl]phenyl]ethyl]-3-methyl-1H-pyrazole-5-carboxamide] | 107 nM
16 | C[C@H]1CC[C@H](c2ccccc2)S(=O)(=O)N1Cc1cc(F)c([C@H](CC2COC2)C(N)=O)cc1F [Compound 4, (2S)-2-[2,5-difluoro-4-[[(3S,6R)-3-methyl-1,1-dioxo-6-phenyl-thiazinan-2-yl]methyl]phenyl]-3-(oxetan-3-yl)propanamide] | 31.8 nM
17 | Cc1n[nH]cc1C(=O)NC(C)c1cc(F)c(CN2[C@@H](C)CC[C@H](c3ccccc3)S2(=O)=O)cc1F (stereo in doubt) [Compound 53, N-[1-[2,5-difluoro-4-[[(3S,6R)-3-methyl-1,1-dioxo-6-phenyl-thiazinan-2-yl]methyl]phenyl]ethyl]-3-methyl-1H-pyrazole-4-carboxamide] | 14 nM
18 | CC(NC(=O)c1cnco1)c1cc(F)c(CN2[C@@H](C)CC[C@H](c3ccccc3)S2(=O)=O)cc1F (stereo in doubt) [Compound 75, N-[1-[2,5-difluoro-4-[[(3S,6R)-3-methyl-1,1-dioxo-6-phenyl-thiazinan-2-yl]methyl]phenyl]ethyl]oxazole-5-carboxamide] | 76.1 nM
19 | C[C@H]1CC[C@H](c2ccccc2)S(=O)(=O)N1Cc1cc(F)c([C@]2(C(N)=O)C[C@](C)(O)C2)cc1F [Compound 48, 1-[2,5-difluoro-4-[[(3S,6R)-3-methyl-1,1-dioxo-6-phenyl-thiazinan-2-yl]methyl]phenyl]-3-hydroxy-3-methyl-cyclobutanecarboxamide] | 4.7 nM
20 | C[C@H]1CC[C@H](c2ccccc2)S(=O)(=O)N1Cc1cc(F)c([C@@]23C[C@@H]2COC3=O)cc1F [Compound 43, (1R,5S)-1-[2,5-difluoro-4-[[(3S,6R)-3-methyl-1,1-dioxo-6-phenyl-thiazinan-2-yl]methyl]phenyl]-3-oxabicyclo[3.1.0]hexan-2-one] | 39.4 nM
